One experiment concerns B. cereus. The class given is cell-based. The following applies: pH 7.2. Here is the method:
(§1) The experiments described above characterizing the activity of granulysin peptides G1-G18 relied on counting bacterial colonies on plates. This assay is quite labor intensive and would not allow evaluation of many different compounds on a number of different microbes. Therefore, we optimized an assay in which the entire procedure could be completed in a single microtiter well. Briefly, peptides are diluted in 10 mM phosphate buffer, pH 7.2 supplemented with 0.03% LB (J. Sambrook, D. W. Russell, Molecular Cloning: A Laboratory Manual (Cold Spring Harbor Laboratory Press, New York, ed. 3, 2001) pg. A2.2, Retrieved from http://openwetware.org/wiki/LB) and 25 μl is added to microtiter wells. Bacteria (25 μl) are added (˜5×10^6 colony forming units/ml) in the same buffer. After a 3-hour incubation at 37° C., 150 μl of LB is added and the plates are incubated overnight. The OD at 600 nm is read on an ELISA plate reader. The minimum inhibitory concentration (MIC) is the lowest concentration allowing no bacterial growth. The IC50 is the concentration of peptide that results in 50% growth compared to the medium.
(§2) We now describe additional peptides and their activity. The peptides have been designed, synthesized, and have been tested for lysis of E. coli and S. typhimurium (gram negative bacteria), B. cereus (gram positive bacterium). Results are shown in Table 2 along with the amino acid sequence of the peptide. Changes from the naturally occurring sequence are underlined. In general, the desired result is lysis of bacteria at low concentration (<1 μM).
(§3) In Table 2, Columns 2-7 are the MIC and IC50 (concentration required for 50% inhibition of growth) for each organism (E. coli, Salmonella, and B. cereus). The MIC (minimum inhibitory concentration) was determined as described above, in a multiwell plate assay. […] L-isomer amino acids are designated by capital letters while D-isomer amino acids are designated by lower case letters.

Another experiment has as its system E. coli DH5a. Type of experiment: cell-based. To be noted: DH5a, pH 7.2. The method, then:
as §1, §2, §3

For the next experiment, the system named is Salmonella. The class given is cell-based, S. typhimurium. To be noted: pH 7.2. The method, then:
as §1, §2, §3

Bridge positions count the residues as written; N and C are the ends. Square brackets hold non-standard residues; d marks the D form. Peptide text beside a SMILES is read from it. Chg = N[C@H](C(=O)O)C1CCCCC1 A value given as a limit tells only on which side of the number the result lay.

Turning to `CSCC[C@@H]1NC(=O)[C@H](Cc2ccccc2)NC(=O)[C@H](CCCCN)NC(=O)[C@H](CCCCN)NC(=O)[C@H](CO)NC(=O)[C@H](C(C)C)NC(=O)[C@H](CCCCN)NC(=O)[C@H](CCCCN)NC(=O)[C@@H](N)CSSC[C@@H](C(N)=O)NC(=O)[C@H](CCCCN)NC(=O)[C@H](CCCCN)NC(=O)[C@H](CCSC)NC(=O)[C@H](Cc2ccccc2)NC(=O)[C@H](CCCCN)NC(=O)[C@H](CCCCN)NC(=O)[C@H](CO)NC(=O)[C@H](C(C)C)NC(=O)[C@H](CCCCN)NC(=O)[C@H](CCCCN)NC(=O)[C@H](CO)NC(=O)CNC(=O)[C@H](CCCCN)NC(=O)[C@H](CCCCN)NC1=O` [G11.31 CYC] (H-CKKVSKKFMKKGSKKVSKKFMKKC-NH2; disulfide 1-24; N-terminus assumed), in the experiment with B. cereus, the “B. cereus MIC” value amounted to 0.7 µM and the IC50 was 400 nM. In the experiment with E. coli DH5a, the “E. coli DH5a MIC” value was 0.61 µM and the IC50 was determined as 420 nM. In the experiment with Salmonella, the IC50 was found to be 410 nM and the “Salmonella MIC” value is 0.7 µM.

As to `CSCC[C@H](NC(=O)[C@H](Cc1ccccc1)NC(=O)[C@H](CCCCN)NC(=O)[C@H](CCCCN)NC(=O)[C@H](CO)NC(=O)[C@@H](NC(=O)[C@H](CCCCN)NC(=O)[C@H](CCCCN)NC(=O)[C@H](CO)NC(=O)CNC(=O)[C@H](CCCCN)NC(=O)[C@H](CCCCN)NC(=O)[C@H](CCSC)NC(=O)[C@H](Cc1ccccc1)NC(=O)[C@H](CCCCN)NC(=O)[C@H](CCCCN)NC(=O)[C@H](CO)NC(=O)[C@@H](NC(=O)[C@H](CCCCN)NC(=O)[C@@H](N)CCCCN)C(C)C)C(C)C)C(=O)N[C@@H](CCCCN)C(=O)N[C@@H](CCCCN)C(=O)O` [Peptide G11.15], in the experiment with B. cereus, the “B. cereus MIC” value is over 10 µM and the IC50 stood at 5850 nM. In the experiment on E. coli DH5a, the “E. coli DH5a MIC” value was determined as 1.38 µM and the IC50 was determined as 800 nM. In the experiment with Salmonella, the IC50 is 410 nM and the “Salmonella MIC” value was 0.7 µM.

As for `CSCC[C@H](NC(=O)[C@H](Cc1ccccc1)NC(=O)[C@H](CCCNC(=N)N)NC(=O)[C@H](CCCNC(=N)N)NC(=O)[C@@H](NC(=O)[C@@H](NC(=O)[C@H](CCCNC(=N)N)NC(=O)[C@@H](N)CCCNC(=N)N)C(C)C)C1CCCCC1)C(=O)N[C@@H](CCCNC(=N)N)C(=O)N[C@@H](CCCNC(=N)N)C(=O)O` [Peptide G11.18, RRV-Chg-RRFMRR] (H-RRV[Chg]RRFMRR-OH; N-terminus and C-terminus assumed), in the experiment on B. cereus, the “B. cereus MIC” value worked out at 5.7 µM and the midpoint of inhibition, the IC50, lay at 3510 nM. Besides, in the experiment with E. coli DH5a, the “E. coli DH5a MIC” value came to 5.65 µM and the midpoint of inhibition, the IC50, lay at 3400 nM. Moreover, in the experiment with Salmonella, half-maximal inhibition (IC50) was put at 880 nM and the “Salmonella MIC” value came out at 1.4 µM.

Turning to `CSCC[C@@H](NC(=O)[C@@H](Cc1ccccc1)NC(=O)[C@@H](CCCNC(=N)N)NC(=O)[C@@H](CCCNC(=N)N)NC(=O)[C@@H](CO)NC(=O)[C@H](NC(=O)[C@@H](CCCNC(=N)N)NC(=O)[C@H](N)CCCNC(=N)N)C(C)C)C(=O)N[C@H](CCCNC(=N)N)C(=O)N[C@H](CCCNC(=N)N)C(=O)O` [Peptide G11.24, rrvsrrfmrr] (H-[dR][dR][dV][dS][dR][dR][dF][dM][dR][dR]-OH; N-terminus and C-terminus assumed), in the experiment with B. cereus, the “B. cereus MIC” value was over 10 µM and the IC50 was over 10000 nM. Also, in the experiment with E. coli DH5a, the “E. coli DH5a MIC” value was found to be 1.4 µM and inhibition was half-maximal at 850 nM (IC50). Moreover, in the experiment with Salmonella, the IC50 was determined as 850 nM and the “Salmonella MIC” value worked out at 1.4 µM.

`CSCC[C@H](NC(=O)[C@H](Cc1ccccc1)NC(=O)[C@@H](CCCNC(=N)N)NC(=O)[C@@H](CCCNC(=N)N)NC(=O)[C@H](CO)NC(=O)[C@H](NC(=O)[C@@H](CCCNC(=N)N)NC(=O)[C@@H](N)CCCNC(=N)N)C(C)C)C(=O)N[C@H](CCCNC(=N)N)C(=O)N[C@@H](CCCNC(=N)N)C(=O)N[C@@H](CC(=O)O)C(N)=O` [Peptide G11.45, RrvSrrFMrRD] (H-R[dR][dV]S[dR][dR]FM[dR]RD-NH2; N-terminus assumed): in the experiment on B. cereus, the “B. cereus MIC” value was over 10 µM and the IC50 is over 10000 nM. Besides, in the experiment with E. coli DH5a, the “E. coli DH5a MIC” value was over 10 µM and the IC50 is over 10000 nM. Also, in the experiment with Salmonella, the IC50 is over 10000 nM and the “Salmonella MIC” value is over 10 µM.

Turning to `CSCC[C@H](NC(=O)[C@H](Cc1ccccc1)NC(=O)[C@@H](CCCNC(=N)N)NC(=O)[C@@H](CCCNC(=N)N)NC(=O)[C@H](CO)NC(=O)[C@@H](NC(=O)[C@@H](CCCNC(=N)N)NC(=O)[C@@H](CCCNC(=N)N)NC(=O)[C@@H](CCCNC(=N)N)NC(=O)[C@@H](CCCNC(=N)N)NC(=O)[C@@H](CCCNC(=N)N)NC(=O)[C@@H](CCCNC(=N)N)NC(=O)[C@@H](CCCNC(=N)N)NC(=O)[C@H](CCC(N)=O)NC(=O)[C@H](CC(C)C)NC(=O)[C@H](CCCCN)NC(=O)[C@H](CO)NC(=O)[C@H](CO)NC(=O)[C@H](Cc1c[nH]cn1)NC(=O)[C@H](CC(=O)O)NC(=O)CNC(=O)CNC(=O)[C@H](CC(=O)O)NC(=O)CNC(=O)CNC(=O)[C@@H](N)CC(=O)O)C(C)C)C(=O)N[C@H](CCCNC(=N)N)C(=O)N[C@H](CCCNC(=N)N)C(=O)O` [Peptide G11.47, DGGDGGDHSSKLQrrrrrrrVSrrFMrr] (H-DGGDGGDHSSKLQ[dR][dR][dR][dR][dR][dR][dR]VS[dR][dR]FM[dR][dR]-OH; N-terminus and C-terminus assumed), in the experiment on B. cereus, the “B. cereus MIC” value was 0.32 µM and the IC50 was found to be 100 nM. Besides, in the experiment with E. coli DH5a, the “E. coli DH5a MIC” value was 0.18 µM and inhibition was half-maximal at 100 nM (IC50). In the experiment on Salmonella, the IC50 came out at 150 nM and the “Salmonella MIC” value is 0.45 µM.

Turning to `CSCC[C@H](NC(=O)[C@H](Cc1ccccc1)NC(=O)[C@H](CCCNC(=N)N)NC(=O)[C@H](CCCNC(=N)N)NC(=O)[C@H](CO)NC(=O)[C@@H](NC(=O)[C@H](CCCNC(=N)N)NC(=O)[C@H](CCCNC(=N)N)NC(=O)[C@H](CS)NC(=O)[C@H](CS)NC(=O)[C@H](CCCNC(=N)N)NC(=O)[C@H](CCCNC(=N)N)NC(=O)[C@@H](NC(=O)[C@H](CO)NC(=O)[C@H](CCCNC(=N)N)NC(=O)[C@H](CCCNC(=N)N)NC(=O)[C@H](Cc1ccccc1)NC(=O)[C@H](CCSC)NC(=O)[C@H](CCCNC(=N)N)NC(=O)[C@@H](N)CCCNC(=N)N)C(C)C)C(C)C)C(=O)N[C@@H](CCCNC(=N)N)C(=O)N[C@@H](CCCNC(=N)N)C(=O)O` [Peptide G11.48] (H-RRMFRRSVRRCCRRVSRRFMRR-OH; N-terminus and C-terminus assumed), in the experiment with B. cereus, the “B. cereus MIC” value is 5.7 µM and the IC50 worked out at 3550 nM. In the experiment with E. coli DH5a, the “E. coli DH5a MIC” value is over 10 µM and the midpoint of inhibition, the IC50, lay at 2100 nM. In the experiment on Salmonella, the IC50 was over 10000 nM and the “Salmonella MIC” value was over 10 µM.

Take `CSCC[C@@H](NC(=O)[C@@H](Cc1ccccc1)NC(=O)[C@@H](CCCCN)NC(=O)[C@@H](CCCCN)NC(=O)[C@@H](CO)NC(=O)[C@H](NC(=O)[C@@H](CCCCN)NC(=O)[C@@H](CCCCN)NC(=O)[C@@H](CO)NC(=O)CNC(=O)[C@@H](CCCCN)NC(=O)[C@@H](CCCCN)NC(=O)[C@@H](CCSC)NC(=O)[C@@H](Cc1ccccc1)NC(=O)[C@@H](CCCCN)NC(=O)[C@@H](CCCCN)NC(=O)[C@@H](CO)NC(=O)[C@H](NC(=O)[C@@H](CCCCN)NC(=O)[C@H](N)CCCCN)C(C)C)C(C)C)C(=O)N[C@H](CCCCN)C(=O)N[C@H](CCCCN)C(=O)O` [Peptide G11.54, kkvskkfmkkgskkvskkfmkk]: in the experiment on B. cereus, the “B. cereus MIC” value turned out to be 0.35 µM and it took 210 nM to reach half-maximal inhibition (IC50). In addition, in the experiment with E. coli DH5a, the “E. coli DH5a MIC” value was over 10 µM and the IC50 was found to be 8250 nM. In the experiment with Salmonella, the IC50 is over 10000 nM and the “Salmonella MIC” value was over 10 µM.

Take `CSCC[C@@H](NC(=O)[C@@H](Cc1ccccc1)NC(=O)[C@@H](CCCCN)NC(=O)[C@@H](CCCCN)NC(=O)[C@@H](CO)NC(=O)[C@H](NC(=O)[C@@H](CCCCN)NC(=O)[C@@H](CCCCN)NC(=O)[C@@H](CO)NC(=O)CNC(=O)[C@@H](CCCCN)NC(=O)[C@@H](CCCCN)NC(=O)[C@@H](CCSC)NC(=O)[C@@H](Cc1ccccc1)NC(=O)[C@@H](CCCCN)NC(=O)[C@@H](CCCCN)NC(=O)[C@@H](CO)NC(=O)[C@H](NC(=O)[C@@H](CCCCN)NC(=O)[C@@H](CCCCN)NC(=O)[C@@H](CO)NC(=O)CNC(=O)[C@@H](CCCCN)NC(=O)[C@@H](CCCCN)NC(=O)[C@@H](CCSC)NC(=O)[C@@H](Cc1ccccc1)NC(=O)[C@@H](CCCCN)NC(=O)[C@@H](CCCCN)NC(=O)[C@@H](CO)NC(=O)[C@H](NC(=O)[C@@H](CCCCN)NC(=O)[C@H](N)CCCCN)C(C)C)C(C)C)C(C)C)C(=O)N[C@H](CCCCN)C(=O)N[C@H](CCCCN)C(=O)O` [Peptide G11.55, kkvskkfmkkgskkvskkfmkkgskkvskkfmkk] (H-[dK][dK][dV][dS][dK][dK][dF][dM][dK][dK]G[dS][dK][dK][dV][dS][dK][dK][dF][dM][dK][dK]G[dS][dK][dK][dV][dS][dK][dK][dF][dM][dK][dK]-OH; N-terminus and C-terminus assumed): in the experiment on B. cereus, the “B. cereus MIC” value amounted to 0.2 µM and it took 100 nM to reach half-maximal inhibition (IC50). Further, in the experiment on E. coli DH5a, the “E. coli DH5a MIC” value stood at 4 µM and inhibition was half-maximal at 980 nM (IC50). For the same compound, in the experiment with Salmonella, the IC50 was over 10000 nM and the “Salmonella MIC” value was over 10 µM.

One may read the IC50 as the point on the concentration scale where inhibition reaches its midpoint. Read a low IC50 as higher potency.

(Values after patent US7745390B2, “Antimicrobial peptides” (priority 2005, dated 2010).)
